Results: US5817674A, “Quinoline compounds” (Roussel Uclaf, priority 1991, dated 1998)

Key:
angiotensin II receptor = target: T1, angiotensin II receptor (Rattus norvegicus, UniProt P25095); assay: Test on the angiotensin II receptor (rat liver membranes, 125I angiotensin II); assay type: binding; conditions: pH 7.4, 25° C., 150 minutes, read-out: IC50 (displacement of 50% of the specific radioactivity fixed on the receptor)
T1 construct: A fresh membrane preparation obtained from the liver of a rat was used; from tissue; host or cells: rat liver membranes
T1 sequence (P25095 1-359): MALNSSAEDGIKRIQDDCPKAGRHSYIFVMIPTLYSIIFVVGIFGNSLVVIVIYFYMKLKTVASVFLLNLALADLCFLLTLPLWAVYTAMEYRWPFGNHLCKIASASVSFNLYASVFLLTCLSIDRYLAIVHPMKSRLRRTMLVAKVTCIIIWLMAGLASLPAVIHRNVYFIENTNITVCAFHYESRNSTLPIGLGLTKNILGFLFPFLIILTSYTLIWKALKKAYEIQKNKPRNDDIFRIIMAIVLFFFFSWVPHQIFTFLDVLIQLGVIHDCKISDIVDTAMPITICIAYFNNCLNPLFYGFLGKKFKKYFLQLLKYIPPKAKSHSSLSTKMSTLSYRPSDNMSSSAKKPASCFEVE
Protocol: 1) Test on the angiotensin II receptor
A fresh membrane preparation obtained from the liver of a rat was used. The tissue was ground up in a polytron in a Tris 50 mM pH 7.4 buffer and after being ground up, the tissue was centrifuged 3 times at 30,000 g for 15 mintues with intermediate taking up of the deposits in the Tris pH 7.4 buffer. The last deposits were suspended in a pH 7.4 incubation buffer (Tris 20 mM, NaCl 135 mM, KCl 10 mM, glucose 5 mM, MgCl2 10 mM, benzyl sulfonyl fluoride 0.3 mM, bacitracin 0.1 mM, (0.2% bovine albumin serum). 2 ml aliquoted fractions were divided into hemolysis tubes and 125I angiotensin II (25,000 DPM/tube) and the product to be studied were added. The product was first tested at 3×10^-5 M in triplicate. When the test product displaced more than 50% of the radioactivity linked specifically to the receptor, it was tested again in a range of 7 concentrations to determine the concentration that inhibited the radioactivity linked specifically to the receptor by 50%. In this way, the 50% inhibiting concentration was determined.
The non-specific bond was determined by the addition of the product of Example 94 of the European Patent No. 0,253,310 at 10^-5 M (in triplicate). […]

[1] = test system: angiotensin II on the isolated portal vein; assay: antagonistic activity of angiotensin II on the isolated portal vein; set-up: species or system male Wistar rats; conditions: rat isolated portal vein; angiotensin II 3.10^-8 M; compound 15 minutes before stimulation; 37° C.; verapamil 1.10^-6 M; read-out: IC50 (concentration that produced a 50% inhibition of the response to angiotensin)
Protocol: The portal vein was removed from male Wistar rats weighing about 350 g (IFFA Credo France) after cervical dislocation. It was put rapidly into a physiological solution (see below) at ambient temperature and a ring of about 1 mm was mounted in a bath with an isolated element containing 20 ml of the following physiological solution (composition in mM: NaCl 118.3-KCl 4.7-MgSO4 1.2-KH2 PO4 1.2-NaHCO3 25-glucose 11.1-CaCl2 2.5). The medium was held at 37° C. and oxygenated by a mixture of O2 95%, CO2 5%. The initial pressure imposed was 1 g and the rings were left at rest for 60 to 90 minutes. To avoid spontaneous contractions, verapamil was added to the incubation bath (1.10^-6 M).
At the end of rest period, angiotensin II (Ciba hypertensin) 3.10^-8 M was added to the incubation bath and left in contact with the preparation for one minute. This operation was repeated every 30 minutes with the tissue being washed 3 or 4 times between two stimulations with angiotensin. The compound to be studied was introduced into the bath 15 minutes before a new stimulation with angiotensin. As increasing concentrations of this molecule were used, an IC50 (concentration that produced a 50% inhibition of the response to angiotensin) was calculated, expressed in nanomoles.

endotheline receptor = target: T2, endotheline receptor (Rattus norvegicus, UniProt P21451); assay: activity on the endotheline receptor (rat posterior cortex plus cerebellum membranes, 125I Endotheline); assay type: binding; conditions: pH 7.4, 25° C., 60 minutes, read-out: IC50 (displacement by 50% of the specific radioactivity fixed to the receptor)
T2 construct: prepared from rat's posteror cortex plus cerebellum; from tissue; host or cells: rat posterior cortex plus cerebellum membranes
T2 sequence (P21451 27-442): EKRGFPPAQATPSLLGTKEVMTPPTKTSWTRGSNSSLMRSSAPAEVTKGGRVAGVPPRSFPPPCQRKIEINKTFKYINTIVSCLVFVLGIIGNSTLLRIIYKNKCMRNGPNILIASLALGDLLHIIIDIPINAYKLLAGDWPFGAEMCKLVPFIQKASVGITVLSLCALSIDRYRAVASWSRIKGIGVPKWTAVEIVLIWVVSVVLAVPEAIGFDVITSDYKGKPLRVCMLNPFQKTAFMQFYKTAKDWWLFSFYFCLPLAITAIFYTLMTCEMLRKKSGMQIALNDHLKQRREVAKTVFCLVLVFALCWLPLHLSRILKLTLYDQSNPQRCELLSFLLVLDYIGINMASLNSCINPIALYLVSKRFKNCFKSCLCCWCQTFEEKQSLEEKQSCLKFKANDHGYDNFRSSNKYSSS
Protocol: 3) Study of the activity on the endotheline receptor
A membrane preparaton was prepared from rat's posteror cortex plus cerebellum. The tissue was ground up in a POLYTRON in a Tris buffer 50 mM pH=7.4. After 30 minutes at 25° C. (W.B.), the homogenate was centrifuged at 30,000 g for 15 minutes (2 centrifugings with intermediate taking up in the Tris buffer pH 7.4). The deposits were suspended in an incubation buffer (Tris 25 mM, pepsteatine 5 microg/ml, aprotinine 3 microg/ml. PMSF 0.1 mM, EDTA 3 mM, EGTA 1 mM pH 7.4). 2 ml aliquots were distributed in hemolysis tubes and 125I Endotheline (about 50,000 dpm/tube) and the product to be studied were added. The product was first tested at 3×10^-5 M in triplicate. When the tested product displaced by more than 50% the radioactivity linked specifically to the receptor, it was tested again in a range of 7 concentrations to determine the concentration that inhibited the radioactivity linked specifically to the receptor by 50%. In this way, the 50% inhibiting concentration was determined.
The non-specific bond was determined by the addition of endotheline at 10^-6 M (in triplicate). The aliquot was incubated at 25° C. for 60 minutes, put in a water bath at 0° C. for 5 minutes, filtered under reduced pressure, rinsed with Tris buffer 7.4 pH and the radioactivity was counted in the presence of scintillating Triton. […]

[2] = test system: vasoconstrictive effect of endotheline; assay: antagonistic activity of the vasoconstrictive effect of endotheline in a demedullated rat; assay type: in vivo; conditions: 1 mg/kg (IV), 10 minutes before endotheline 1-3-10-30 μg/kg IV; anaesthetized demedullated Sprague Dawley rats
Protocol: 4) Investigation of an antagonistic activity of the vasoconstrictive effect of endotheline in a demedullated rat
The vasoconstriction caused by injections (IV) of cumulative doses of endotheline (1-3-10-30 μg/kg) was measured by the increase of average arterial pressure in a control group of rats (Sprague Dawley), anaesthetized, then demedullated.

CCCCc1cc(Cc2ccc(-c3ccccc3C(=O)O)cc2)c2ccccc2n1 [Example 4, 4'-[(2-butyl-4-quinolinyl)-methyl](1,1'-biphenyl)-2-carboxylic acid]
IC50 (angiotensin II receptor): 0.54 µM | IC50 [1]: 0.131 µM

CC(C)Cc1cc(OCc2ccc(-c3ccccc3C(=O)O)cc2)c2cccc(C(F)(F)F)c2n1 [Example 35, 4'-(((2-(2-methylproyl)-8-(trifluoromethyl)-4-quinolinyl)-oxy)-methyl)(1,1'-biphenyl)-2-carboxylic acid]
IC50 (endotheline receptor): 14 µM | antagonistic effect: decrease in response to endotheline (average arterial pressure) [2]: antagonistic effect
